This test addresses Cyclin-dependent kinase 1/cyclin B1 (Homo sapiens, UniProt P06493). The experiment in a line: Inhibition of Cdk1/cyclin B. It counts as protein-complex assay.

Cyclin-dependent kinase 1/cyclin B1, sequence (P06493 whole entry): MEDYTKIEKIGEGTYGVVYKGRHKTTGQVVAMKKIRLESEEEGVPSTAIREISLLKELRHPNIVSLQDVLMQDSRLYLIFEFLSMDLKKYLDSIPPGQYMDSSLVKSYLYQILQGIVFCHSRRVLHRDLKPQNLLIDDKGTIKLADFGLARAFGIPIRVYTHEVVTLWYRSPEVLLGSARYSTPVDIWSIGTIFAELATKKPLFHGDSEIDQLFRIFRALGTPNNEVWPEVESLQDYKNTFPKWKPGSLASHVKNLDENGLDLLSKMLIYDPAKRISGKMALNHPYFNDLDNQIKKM
Cyclin-dependent kinase 1/cyclin B1, sequence (P14635 whole entry, further chain): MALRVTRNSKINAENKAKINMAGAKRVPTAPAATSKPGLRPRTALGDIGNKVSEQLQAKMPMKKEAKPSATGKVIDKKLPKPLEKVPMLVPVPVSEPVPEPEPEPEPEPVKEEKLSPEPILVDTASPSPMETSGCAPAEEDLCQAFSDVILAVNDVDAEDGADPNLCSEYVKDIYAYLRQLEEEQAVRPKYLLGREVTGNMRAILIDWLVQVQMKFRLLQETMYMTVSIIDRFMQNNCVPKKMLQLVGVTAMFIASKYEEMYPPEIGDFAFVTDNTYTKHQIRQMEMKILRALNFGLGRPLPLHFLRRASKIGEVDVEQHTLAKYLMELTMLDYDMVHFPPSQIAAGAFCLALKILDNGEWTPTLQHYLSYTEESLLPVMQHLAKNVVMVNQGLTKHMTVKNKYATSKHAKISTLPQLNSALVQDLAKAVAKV

Regarding `O=c1cc(-c2ccccc2)oc2c(CN3CCCC3)c(O)c(O)c(O)c12`, 1.22 µM corresponded to half-maximal inhibition (IC50). The same measure for `CN(C)Cc1c(O)cc(O)c2c(=O)c(O)c(-c3ccc(O)c(O)c3)oc12`: 15.7 µM; for `O=c1cc(-c2ccccc2)oc2c(CN3CCCCC3)c(O)c(O)c(O)c12`: 1.28 µM. For `CN(C)Cc1c(O)c(O)c(O)c2c(=O)cc(-c3ccccc3)oc12`, half-maximal inhibition (IC50) was put at 1.05 µM.

Regarding `O=C(O)[C@H]1O[C@@H](Oc2cc3oc(-c4ccccc4)cc(=O)c3c(O)c2O)[C@H](O)[C@@H](O)[C@@H]1O` [BAICALIN], the IC50 (in general, the concentration that gives 50% inhibition) came to 14.4 µM. For `O=c1c(O)c(-c2ccc(O)c(O)c2)oc2c(CN3CCOCC3)c(O)cc(O)c12`, the 50% inhibitory concentration (IC50) is greater than 20 µM.

As to `COc1cc(O)c(C(=O)/C=C/c2ccccc2)cc1CN1CCCC1`, the half-inhibitory concentration (IC50) is greater than 20 µM. The same measure for `COc1cc(O)c(C(=O)/C=C/c2ccccc2)cc1CN1CCSCC1`: greater than 20 µM; for `O=c1cc(-c2ccccc2)oc2cc(O)c(O)c(O)c12` [BAICALEIN]: 6.53 µM; for `O=c1cc(-c2ccccc2)oc2c(CN3CCOCC3)c(O)c(O)c(O)c12`: 0.28 µM.

`CN1CCN(Cc2c(O)c(O)c(O)c3c(=O)cc(-c4ccccc4)oc23)CC1`: the 50% inhibitory concentration (IC50) amounted to 0.27 µM. The value for `COc1ccc(C(=O)/C=C/c2ccccc2)c(O)c1` was greater than 20 µM; that for `COc1cc(O)c(C(=O)/C=C/c2ccccc2)cc1CN(C)C` was greater than 20 µM; that for `COc1cc(O)c(C(=O)/C=C/c2ccccc2)cc1CN1CCN(C)CC1` was greater than 20 µM. The value for `COc1cc(O)c(C(=O)/C=C/c2ccccc2)cc1CN1CCOCC1` was greater than 20 µM; that for `CN1CCN(Cc2c(O)cc(O)c3c(=O)c(O)c(-c4ccc(O)c(O)c4)oc23)CC1` was greater than 20 µM. The compound `COC(=O)[C@H]1O[C@@H](Oc2cc3oc(-c4ccccc4)cc(=O)c3c(O)c2O)[C@H](O)[C@H](O)[C@@H]1O` [BAICALIN METHYLATE] gave an IC50 of 11.6 µM.

`O=c1c(O)c(-c2ccc(O)c(O)c2)oc2c(CN3CCCCC3)c(O)cc(O)c12` had a half-inhibitory concentration (IC50) of 18.7 µM.

The compound `O=c1cc(-c2ccccc2)oc2c(CN3CCSCC3)c(O)c(O)c(O)c12` showed a concentration for half-maximal inhibition (IC50) of 0.38 µM.

In turn, `O=c1c(O)c(-c2ccc(O)c(O)c2)oc2cc(O)cc(O)c12` [QUERCETIN] yielded an IC50 greater than 20 µM. The same measure for `COc1cc(O)c(C(=O)/C=C/c2ccccc2)cc1CN1CCCCC1`: greater than 20 µM.
